Measured values as given in ChEMBL document CHEMBL1201862, “PubChem BioAssay data set” (2004).
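48-hour exposure; five concentrations; linearly interpolated endpoints. GI50 marks 50% less growth.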 Active and inactive are the calls of the source. Cut-off read from the data, not from the text of the source: active = GI50 up to about 1.1 µM and inactive = higher.

How the values were obtained:
Test in all cases: inhibition of tumour cell growth, NCI panel, 48 h
U-251 = system: U-251
Malme-3M = system: Malme-3M
OVCAR-5 = system: OVCAR-5
COLO 205 = system: COLO 205
UACC-62 = system: UACC-62
OVCAR-8 = system: OVCAR-8
SNB-75 = system: SNB-75
SR = system: SR
SK-OV-3 = system: SK-OV-3
SK-MEL-5 = system: SK-MEL-5
SW-620 = system: SW-620
HOP-92 = system: HOP-92
LOX IMVI = system: LOX IMVI
A498 = system: A498
K562 = system: K562
CCRF-CEM = system: CCRF-CEM
NCI-H226 = system: NCI-H226

Measured: GI50

C/C=C(/CCCCNCCCC)[Si](C)(C)C
inactive: U-251 13.5 µM | Malme-3M 16.9 µM | OVCAR-5 14.4 µM | COLO 205 11 µM | UACC-62 17.6 µM | OVCAR-8 15.7 µM | SNB-75 13.5 µM | SR 13.4 µM | SK-OV-3 18 µM | SK-MEL-5 13.3 µM | SW-620 16.6 µM | HOP-92 6.38 µM | LOX IMVI 14.2 µM | A498 15.5 µM | K562 17.6 µM | CCRF-CEM 8.26 µM

COC(=O)C1=CCC2c3[nH]c4ccccc4c3CCN2C1 (centres undefined)
inactive: U-251 > 354 µM | Malme-3M > 354 µM | COLO 205 > 354 µM | UACC-62 > 354 µM | OVCAR-8 > 354 µM | SR > 354 µM | SK-OV-3 > 354 µM | NCI-H226 203 µM | SK-MEL-5 > 354 µM | SW-620 > 354 µM | HOP-92 > 354 µM | LOX IMVI > 354 µM | K562 > 354 µM | CCRF-CEM > 354 µM

N#CC(C(=O)CCCC(=O)Nc1ccc(Cl)cc1Cl)c1ccccc1 (centres undefined)
inactive: U-251 > 100 µM | Malme-3M > 100 µM | OVCAR-5 > 100 µM | COLO 205 > 100 µM | UACC-62 > 100 µM | OVCAR-8 > 100 µM | SR > 100 µM | SK-OV-3 > 100 µM | NCI-H226 > 100 µM | SK-MEL-5 > 100 µM | SW-620 > 100 µM | HOP-92 > 100 µM | LOX IMVI > 100 µM | K562 > 100 µM | CCRF-CEM > 100 µM

COC(=O)/C(C#N)=C1\NN=NN1c1ccc(OC)cc1
inactive: U-251 > 100 µM | Malme-3M > 100 µM | COLO 205 > 100 µM | UACC-62 > 100 µM | OVCAR-8 > 100 µM | SNB-75 > 100 µM | SK-OV-3 > 100 µM | NCI-H226 > 100 µM | SK-MEL-5 > 100 µM | SW-620 > 100 µM | HOP-92 > 100 µM | LOX IMVI > 100 µM | A498 > 100 µM | K562 > 100 µM | CCRF-CEM > 100 µM

O=C(O)c1ccc([C@@H]2C(=O)N(O)[C@@H]3C=CC[C@@H]32)cc1
inactive: Malme-3M > 100 µM | COLO 205 > 100 µM | UACC-62 > 100 µM | OVCAR-8 > 100 µM | SNB-75 > 100 µM | SK-OV-3 > 100 µM | NCI-H226 > 100 µM | SK-MEL-5 > 100 µM | SW-620 > 100 µM | LOX IMVI > 100 µM | K562 > 100 µM | CCRF-CEM > 100 µM

CCCCCCCCOCC(CO)OCCCCCCCC (centres undefined)
inactive: U-251 17.3 µM | Malme-3M 19.6 µM | OVCAR-5 17.9 µM | COLO 205 20.6 µM | UACC-62 20.1 µM | OVCAR-8 19.3 µM | SR > 10 µM | SK-OV-3 > 100 µM | NCI-H226 24.4 µM | SK-MEL-5 17.9 µM | SW-620 19.8 µM | HOP-92 21.8 µM | LOX IMVI 17.6 µM | A498 18.8 µM | K562 18.4 µM | CCRF-CEM 22.5 µM

c1ccc2c(c1)CCC/C2=N\OCC1CO1 (centres undefined)
inactive: U-251 > 100 µM | Malme-3M > 100 µM | OVCAR-5 > 100 µM | COLO 205 > 100 µM | UACC-62 58.6 µM | OVCAR-8 81.7 µM | SNB-75 > 100 µM | SK-OV-3 > 100 µM | SK-MEL-5 > 100 µM | SW-620 92.9 µM | HOP-92 5.77 µM | LOX IMVI 36.3 µM | A498 82 µM | K562 43.8 µM | CCRF-CEM 23.2 µM

CC(=O)O[C@]12CCC[C@H]1C1(O)C(O)CCC[C@H]12 (some centres undefined)
inactive: U-251 > 100 µM | Malme-3M > 100 µM | COLO 205 > 100 µM | UACC-62 > 100 µM | OVCAR-8 > 100 µM | SNB-75 > 100 µM | SR > 100 µM | SK-OV-3 > 100 µM | NCI-H226 > 100 µM | SK-MEL-5 > 100 µM | SW-620 > 100 µM | LOX IMVI > 100 µM | K562 > 100 µM | CCRF-CEM > 100 µM

COC(=O)C(Cc1cc(OC)c(OC)c(OC)c1)c1ccc(OC)cc1 (centres undefined)
inactive: U-251 > 100 µM | Malme-3M > 100 µM | OVCAR-5 44.7 µM | COLO 205 > 100 µM | UACC-62 > 100 µM | OVCAR-8 > 100 µM | NCI-H226 > 100 µM | SK-MEL-5 45 µM | SW-620 > 100 µM | HOP-92 85.9 µM | LOX IMVI 79.3 µM | A498 > 100 µM | K562 88.9 µM | CCRF-CEM 88.5 µM

COc1cc2c(cc1OC)C(C#N)N(C(=O)c1ccccc1)C=C2OC(=O)c1ccccc1 (centres undefined)
inactive: U-251 24.7 µM | Malme-3M 25.3 µM | OVCAR-5 > 100 µM | COLO 205 46.6 µM | UACC-62 20.5 µM | OVCAR-8 27.9 µM | SNB-75 17 µM | SR 61.5 µM | SK-OV-3 65.8 µM | NCI-H226 23.2 µM | SK-MEL-5 23.9 µM | SW-620 33 µM | HOP-92 27 µM | LOX IMVI 39.4 µM | K562 32.7 µM | CCRF-CEM 36.6 µM

COC(CN1C=C(Sc2ccccc2)CC1)OC
inactive: Malme-3M 35.9 µM | OVCAR-5 49.2 µM | COLO 205 22.6 µM | UACC-62 31.8 µM | OVCAR-8 29.6 µM | SNB-75 19 µM | SK-OV-3 37 µM | NCI-H226 33.3 µM | SK-MEL-5 18.9 µM | SW-620 21.9 µM | HOP-92 26.9 µM | LOX IMVI 24.8 µM | A498 48.2 µM | K562 20.7 µM | CCRF-CEM 19.5 µM

CC(C)(C)OC(=O)N[C@H]1CC(=O)c2ccccc2N(CC(=O)O)C1=O
inactive: Malme-3M 19.9 µM | COLO 205 > 100 µM | UACC-62 > 100 µM | OVCAR-8 > 100 µM | SNB-75 81.1 µM | SK-OV-3 > 100 µM | NCI-H226 > 100 µM | SK-MEL-5 > 100 µM | SW-620 > 100 µM | HOP-92 > 100 µM | LOX IMVI > 100 µM | CCRF-CEM > 100 µM

Cc1ccc(S(=O)(=O)c2c(N)c3nc4ccccc4n3c3nc4ccccc4nc23)cc1
inactive: U-251 6.75 µM | Malme-3M > 100 µM | OVCAR-5 > 100 µM | COLO 205 > 100 µM | UACC-62 > 100 µM | OVCAR-8 > 100 µM | SNB-75 > 100 µM | SR > 100 µM | SK-OV-3 > 100 µM | NCI-H226 > 100 µM | SK-MEL-5 > 100 µM | SW-620 > 100 µM | LOX IMVI > 100 µM | K562 > 100 µM | CCRF-CEM > 100 µM
